Assay results: ChEMBL document CHEMBL1141240, “N-8-Substituted benztropinamine analogs as selective dopamine transporter ligands” (Bioorg Med Chem Lett, 2005)
pKi: −log10 of the molar value.

How the values were obtained:
[1] = biological target: T1, Muscarinic acetylcholine receptor M1 (Homo sapiens, UniProt P11229); assay: Displacement of [3H]pirenzepine from Muscarinic receptor M1
T1 sequence (P11229 whole entry): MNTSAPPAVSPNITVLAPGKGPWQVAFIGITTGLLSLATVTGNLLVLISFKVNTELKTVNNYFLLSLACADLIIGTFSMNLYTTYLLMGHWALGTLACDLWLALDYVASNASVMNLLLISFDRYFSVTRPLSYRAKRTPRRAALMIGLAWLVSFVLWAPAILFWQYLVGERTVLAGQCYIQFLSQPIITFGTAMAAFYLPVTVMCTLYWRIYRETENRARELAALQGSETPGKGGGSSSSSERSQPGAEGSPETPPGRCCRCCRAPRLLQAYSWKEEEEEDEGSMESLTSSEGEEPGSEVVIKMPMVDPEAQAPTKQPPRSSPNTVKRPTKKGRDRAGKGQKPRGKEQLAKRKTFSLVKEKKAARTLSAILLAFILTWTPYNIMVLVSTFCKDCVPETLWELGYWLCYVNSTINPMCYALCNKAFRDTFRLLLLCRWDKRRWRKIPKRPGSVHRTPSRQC

[2] = biological target: Sodium-dependent noradrenaline transporter (Homo sapiens, UniProt P23975); assay: Displacement of [3H]nisoxetine from NET
[3] = Selectivity of Muscarinic receptor M1 over DAT
[4] = biological target: Sodium-dependent serotonin transporter (Homo sapiens, UniProt P31645); assay: Displacement of [3H]citalopram from SERT
[5] = Selectivity of NET over DAT
[6] = Selectivity of SERT over DAT
[7] = biological target: Sodium-dependent dopamine transporter (Rattus norvegicus, UniProt P23977); assay: Displacement of [3H]WIN-from DAT in rat brain membrane; assay type: cell membranes
Sodium-dependent dopamine transporter, sequence (P23977 whole entry): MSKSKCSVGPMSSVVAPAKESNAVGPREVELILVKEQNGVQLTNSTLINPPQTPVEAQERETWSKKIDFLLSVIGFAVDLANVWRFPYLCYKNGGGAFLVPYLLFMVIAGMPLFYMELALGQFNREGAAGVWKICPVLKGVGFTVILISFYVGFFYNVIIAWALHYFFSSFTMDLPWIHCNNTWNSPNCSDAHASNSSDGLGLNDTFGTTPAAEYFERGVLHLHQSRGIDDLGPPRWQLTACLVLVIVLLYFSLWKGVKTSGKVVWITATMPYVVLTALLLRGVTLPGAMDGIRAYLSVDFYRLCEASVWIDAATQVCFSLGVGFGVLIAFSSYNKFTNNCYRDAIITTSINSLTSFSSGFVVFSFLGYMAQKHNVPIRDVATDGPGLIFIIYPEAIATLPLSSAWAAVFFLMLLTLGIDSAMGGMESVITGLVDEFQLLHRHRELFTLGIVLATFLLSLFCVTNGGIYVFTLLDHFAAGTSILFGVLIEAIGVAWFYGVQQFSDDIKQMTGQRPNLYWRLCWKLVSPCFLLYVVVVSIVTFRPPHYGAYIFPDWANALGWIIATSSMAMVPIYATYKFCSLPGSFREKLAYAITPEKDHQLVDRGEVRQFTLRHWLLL

Sodium-dependent noradrenaline transporter, sequence (P23975 whole entry): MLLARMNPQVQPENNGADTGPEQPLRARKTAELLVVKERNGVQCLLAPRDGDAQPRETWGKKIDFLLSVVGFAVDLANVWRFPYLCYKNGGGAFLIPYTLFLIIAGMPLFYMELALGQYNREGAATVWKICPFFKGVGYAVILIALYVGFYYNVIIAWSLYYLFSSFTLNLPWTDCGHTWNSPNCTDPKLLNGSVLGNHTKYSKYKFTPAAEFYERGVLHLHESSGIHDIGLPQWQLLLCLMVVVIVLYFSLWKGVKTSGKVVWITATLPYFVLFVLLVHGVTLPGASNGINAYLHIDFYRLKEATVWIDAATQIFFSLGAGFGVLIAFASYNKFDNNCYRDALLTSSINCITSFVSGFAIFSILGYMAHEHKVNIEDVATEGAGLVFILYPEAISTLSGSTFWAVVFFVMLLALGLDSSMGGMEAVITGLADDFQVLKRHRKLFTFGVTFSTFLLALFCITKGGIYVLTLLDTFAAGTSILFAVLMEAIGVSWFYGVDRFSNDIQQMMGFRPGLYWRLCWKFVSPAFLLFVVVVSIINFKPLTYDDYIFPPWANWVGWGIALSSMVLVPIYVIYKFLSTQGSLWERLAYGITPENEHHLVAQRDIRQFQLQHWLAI
Sodium-dependent serotonin transporter, sequence (P31645 whole entry): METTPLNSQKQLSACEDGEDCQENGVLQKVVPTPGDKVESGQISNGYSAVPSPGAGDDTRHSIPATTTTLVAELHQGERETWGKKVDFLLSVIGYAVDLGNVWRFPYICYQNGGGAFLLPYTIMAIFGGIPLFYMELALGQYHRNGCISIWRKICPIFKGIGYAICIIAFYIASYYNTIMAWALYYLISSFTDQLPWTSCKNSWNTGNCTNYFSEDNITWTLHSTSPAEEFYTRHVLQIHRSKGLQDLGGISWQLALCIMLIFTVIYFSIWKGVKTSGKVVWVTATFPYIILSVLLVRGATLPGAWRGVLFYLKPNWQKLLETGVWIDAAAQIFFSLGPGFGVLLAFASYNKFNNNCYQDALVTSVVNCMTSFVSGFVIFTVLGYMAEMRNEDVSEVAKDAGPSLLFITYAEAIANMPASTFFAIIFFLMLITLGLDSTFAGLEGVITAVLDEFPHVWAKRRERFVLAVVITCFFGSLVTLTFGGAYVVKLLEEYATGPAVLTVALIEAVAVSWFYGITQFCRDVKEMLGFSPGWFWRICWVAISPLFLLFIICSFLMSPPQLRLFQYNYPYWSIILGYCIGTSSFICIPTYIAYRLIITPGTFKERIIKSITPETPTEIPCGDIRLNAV

| Structure (SMILES) | pKi [1] | pKi [2] | Ratio Ki [3] | pKi [4] | Ratio Ki [5] | Ratio Ki [6] | pKi [7] |
| --- | --- | --- | --- | --- | --- | --- | --- |
| Fc1ccc(C(N[C@H]2C[C@H]3CC[C@@H](C2)N3)c2ccc(F)cc2)cc1 | 6.81 | 6.00 | 18 | 5.38 | 118 | 491 |  |
| Fc1ccc(C(N[C@H]2C[C@H]3CC[C@@H](C2)N3CCCCc2ccccc2)c2ccc(F)cc2)cc1 | 6.36 | 5.79 | 37 | 6.30 | 139 | 43 |  |
| CN(C(c1ccc(F)cc1)c1ccc(F)cc1)[C@H]1C[C@H]2CC[C@@H](C1)N2C | 7.73 | 5.08 | 0.2 | 4.76 | 68 | 140 |  |
| Fc1ccc(C(O[C@H]2C[C@H]3CC[C@@H](C2)N3CCc2c[nH]c3ccccc23)c2ccc(F)cc2)cc1 |  |  |  |  |  |  | 7.53 |
| CN1[C@@H]2CC[C@H]1C[C@@H](NC(c1ccc(F)cc1)c1ccc(F)cc1)C2 | 8.11 | 5.74 | 0.7 | 5.06 | 160 | 769 |  |
| Fc1ccc(C(N[C@H]2C[C@H]3CC[C@@H](C2)N3CCc2c[nH]c3ccccc23)c2ccc(F)cc2)cc1 | 6.38 | 5.08 |  | 6.46 |  |  |  |
| NCCN1[C@@H]2CC[C@H]1C[C@@H](OC(c1ccc(F)cc1)c1ccc(F)cc1)C2 |  |  |  |  |  |  | 8.25 |
| NCCN1[C@@H]2CC[C@H]1C[C@@H](NC(c1ccc(F)cc1)c1ccc(F)cc1)C2 | 5.68 | 5.45 | 169 | 4.96 |  |  |  |
| O=C(CCN1[C@@H]2CC[C@H]1C[C@@H](OC(c1ccc(F)cc1)c1ccc(F)cc1)C2)Nc1ccccc1 |  |  |  |  |  |  | 8.21 |
| CN1[C@@H]2CC[C@H]1C[C@@H](NC(c1ccc(Cl)cc1)c1ccc(Cl)cc1)C2 | 7.30 | 5.12 |  | 5.38 |  |  |  |
| CN1[C@@H]2CC[C@H]1C[C@@H](NC(c1ccc(Cl)c(Cl)c1)c1ccc(Cl)c(Cl)c1)C2 | 7.75 | 6.59 | 3 | 5.52 | 48 | 563 |  |
| CN1[C@@H]2CC[C@H]1C[C@H](NC(c1ccc(F)cc1)c1ccc(F)cc1)C2 | 7.23 | 3.82 | 0.1 | 4.31 | 230 | 73 |  |
| C=CCN1[C@@H]2CC[C@H]1C[C@@H](NC(c1ccc(F)cc1)c1ccc(F)cc1)C2 | 6.89 | 5.25 | 5 | 5.41 | 208 | 146 |  |
| CN1[C@@H]2CC[C@H]1C[C@@H](NC(c1ccccc1)c1ccc(Cl)cc1)C2 (stereo partly specified) | 8.03 | 5.50 | 0.3 | 4.87 | 87 | 373 |  |
| CCCCN1[C@@H]2CC[C@H]1C[C@@H](NC(c1ccc(F)cc1)c1ccc(F)cc1)C2 | 6.34 | 5.53 | 21 | 5.58 | 136 | 123 |  |
| O=C(CCN1[C@@H]2CC[C@H]1C[C@@H](NC(c1ccc(F)cc1)c1ccc(F)cc1)C2)Nc1ccccc1 | 5.60 | 5.61 | 551 | 6.22 | 536 | 132 |  |
| CN1C2CCC1CC(OC(c1ccc(F)cc1)c1ccc(F)cc1)C2 (stereo unspecified) [DIFLUOROBENZTROPINE] | 7.94 | 6.07 |  | 5.49 |  |  |  |
